Results from US20260234157A1, “COMPOUND AND METHOD FOR TARGETED DEGRADATION OF ANDROGEN RECEPTOR” (Gan & Lee Pharmaceuticals Co., Ltd., priority 2023, published 2026).
Substitutions are numbered along the chain they refer to. Read-outs that look alike come from different tables or passages of the source.

Tests used:
Assay type in all cases: cell-based
LNCaP FGC cells = assay: Inhibition of proliferation of LNCaP cells (WST-8); conditions: Homo sapiens, LNCaP, 96 h
Experimental: The cells were cultured in a cell culture incubator with 5% CO2 at 37° C. overnight. […] On the sixth day, 96 well plates were taken out, and 20 μL of WST-8 (Beytime, C0040) reagent was added to each well.

VCaP cells = assay: Inhibition of proliferation of VCaP cells (WST-8); conditions: Homo sapiens, read-out: IC50 for inhibiting the proliferation of VCaP cells
Experimental: The inhibitory activity of the compounds disclosed in the present disclosure on the proliferation of VCaP cells
On the first day of the experiment, […] were inoculated in 96 well plates at a density of 15000 cells per well using DMEM medium containing 10% fetal bovine serum, with 100 μL of cell suspension per well. The cells were cultured in a cell culture incubator with 5% CO2 at 37° C. overnight. […] On the ninth day, 96 well plates were taken out, and 20 μL of WST-8 (Beytime, C0040) reagent was added to each well.

AR protein [1] = target: T1, AR protein (Homo sapiens, UniProt P10275); assay: Degradation of AR protein in VCaP cells (Western blot); conditions: 8 hours; for inhibition at 0.01 µM: compound at 10 nM, read-out: Degradation rate of the AR protein in VCaP cells, 10 nM (%); for inhibition at 0.1 µM: compound at 100 nM, read-out: Degradation rate of the AR protein in VCaP cells, 100 nM (%)
T1 construct: degradation activity of the compounds disclosed in the present disclosure on AR protein in VCaP cells; host or cells: VCaP
T1 sequence (P10275 1-920): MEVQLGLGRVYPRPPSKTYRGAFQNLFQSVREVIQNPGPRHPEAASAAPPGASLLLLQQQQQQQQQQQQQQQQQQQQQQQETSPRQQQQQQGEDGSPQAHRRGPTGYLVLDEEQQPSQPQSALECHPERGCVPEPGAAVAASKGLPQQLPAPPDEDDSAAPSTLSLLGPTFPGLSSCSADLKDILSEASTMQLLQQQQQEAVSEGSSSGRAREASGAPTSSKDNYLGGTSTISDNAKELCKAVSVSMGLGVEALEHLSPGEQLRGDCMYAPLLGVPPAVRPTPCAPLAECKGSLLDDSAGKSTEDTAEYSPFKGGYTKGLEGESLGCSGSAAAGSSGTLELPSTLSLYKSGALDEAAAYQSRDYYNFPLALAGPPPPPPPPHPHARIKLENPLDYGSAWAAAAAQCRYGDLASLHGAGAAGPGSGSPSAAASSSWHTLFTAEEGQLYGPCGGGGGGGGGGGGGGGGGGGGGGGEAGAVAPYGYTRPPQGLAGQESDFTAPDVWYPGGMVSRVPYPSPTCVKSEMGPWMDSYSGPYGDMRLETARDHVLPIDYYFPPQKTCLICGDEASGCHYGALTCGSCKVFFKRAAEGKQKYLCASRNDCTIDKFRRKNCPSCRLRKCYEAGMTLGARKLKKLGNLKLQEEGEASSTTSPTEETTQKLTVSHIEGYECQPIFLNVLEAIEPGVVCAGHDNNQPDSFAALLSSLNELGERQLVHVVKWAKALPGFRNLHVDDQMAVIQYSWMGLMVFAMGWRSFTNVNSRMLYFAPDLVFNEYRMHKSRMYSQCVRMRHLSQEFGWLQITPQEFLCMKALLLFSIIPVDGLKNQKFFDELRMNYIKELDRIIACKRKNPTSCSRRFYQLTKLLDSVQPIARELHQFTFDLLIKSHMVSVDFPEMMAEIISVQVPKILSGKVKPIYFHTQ
Method in brief: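 VCaP cells treated with compound alongside solvent controls for 8 h, then lysed in RIPA and protein quantified by BCA. AR detected by SDS-PAGE/Western blot with infrared imaging. Degradation rate calculated from band grayscale, with GAPDH as internal reference.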

AR protein [2] = target: T2, AR protein (Homo sapiens, UniProt P10275, T878A); assay: Degradation of AR protein in LNCaP cells (Western blot); conditions: for inhibition at 0.01 µM: read-out: Degradation rates of the AR protein in LNCaP cells, 10 nM (%); for inhibition at 0.1 µM: read-out: Degradation rates of the AR protein in LNCaP cells, 100 nM (%)
T2 construct: degradation activity of the compounds disclosed in the present disclosure on AR protein in LNCaP cells; host or cells: LNCaP FGC
T2 sequence (P10275 1-920 T878A): T1 sequence (P10275 1-920) with T878A
Method in brief: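 AR assessed by SDS-PAGE/Western blot with infrared imaging; band greyscale normalised to GAPDH gave percent degradation.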

[3] = LNCaP FGC cells, 96 hours, WST-8 absorbance at 450 nm, read-out: IC50 for inhibiting the proliferation of LNCaP cells
[4] = VCaP cells, 168 hours, WST-8 absorbance at 450 nm
[5] = read-out: IC50 for inhibiting the proliferation of LNCaP cells, LNCaP FGC cells, 96 hours, WST-8 absorbance at 450 nm
[6] = LNCaP cells, compound 10 nM, 8 hours, Western blot grayscale, GAPDH internal reference
[7] = LNCaP cells, compound 100 nM, 8 hours, Western blot grayscale, GAPDH internal reference

SMILES: N#Cc1ccc(O[C@H]2CC[C@H](NC(=O)c3ccc(N4CC[C@@H](CN5CCC6(CCc7cc8c(cc7O6)C(=O)N(C6CCC(=O)NC6=O)C8=O)CC5)C4)nn3)CC2)cc1Cl (stereo partly drawn) [Compound 21]
- IC50 (LNCaP FGC cells; [3]): 560 nM
- IC50 (VCaP cells; [4]): 380 nM

SMILES: N#Cc1ccc(O[C@H]2CC[C@H](NC(=O)c3ccc(N4CC(N5CCC6(CCc7cc8c(cc7O6)C(=O)N(C6CCC(=O)NC6=O)C8)CC5)C4)nn3)CC2)cc1Cl (stereo partly drawn) [Compound 46]
- inhibition at 0.01 µM (AR protein [1]): 39%
- inhibition at 0.1 µM (AR protein [1]): 59%
- inhibition at 0.01 µM (AR protein [2]; LNCaP, 8 h): 35%
- inhibition at 0.1 µM (AR protein [2]; LNCaP, 8 h): 47%
- IC50 (VCaP cells; VCaP, 168 h): 110 nM

SMILES: CC1(CN2CC3(CCc4cc5c(cc4O3)CN(C3CCC(=O)NC3=O)C5=O)C2)CCN(c2ccc(C(=O)N[C@H]3CC[C@H](Oc4ccc(C#N)c(Cl)c4)CC3)nn2)CC1 (stereo partly drawn) [Compound 80]
- IC50 (LNCaP FGC cells; [3]): 730 nM
- IC50 (VCaP cells; [4]): 2830 nM

SMILES: CC1(C)C(=O)N(c2ccc(C#N)c(C(F)(F)F)c2)C(=S)N1c1ccc(C(=O)N2CCC(F)(CN3CC4(CCc5cc6c(cc5O4)C(=O)N(C4CCC(=O)NC4=O)C6)C3)CC2)c(F)c1 (stereo not drawn) [Compound 81]
- IC50 (LNCaP FGC cells; [5]): 3860 nM
- IC50 (VCaP cells; VCaP, 168 h): 30 nM

SMILES: CC1(C)C(=O)N(c2ccc(C#N)c(C(F)(F)F)c2)C(=S)N1c1ccc(C(=O)N2CCC(CN3CCC4(CC3)COc3cc5c(cc3C4)C(=O)N(C3CCC(=O)NC3=O)C5=O)CC2)c(F)c1 (stereo not drawn) [Compound 82]
- IC50 (LNCaP FGC cells; [5]): 3390 nM
- IC50 (VCaP cells; VCaP, 168 h): 4260 nM

SMILES: CC1(C)C(=O)N(c2ccc(C#N)c(C(F)(F)F)c2)C(=S)N1c1ccc(C(=O)N2CC(CN3CCC4(CCc5cc6c(cc5O4)C(=O)N(C4CCC(=O)NC4=O)C6=O)CC3)C2)c(F)c1 (stereo not drawn) [Compound 84]
- IC50 (VCaP cells; VCaP, 168 h): 4570 nM

SMILES: CC1(C)C(=O)N(c2ccc(C#N)c(C(F)(F)F)c2)C(=S)N1c1ccc(C(=O)N2CC3(CC(N4CCC5(CC4)COc4cc6c(cc45)C(=O)N(C4CCC(=O)NC4=O)C6=O)C3)C2)c(F)c1 (stereo not drawn) [Compound 92]
- IC50 (VCaP cells; VCaP, 168 h): 4090 nM

SMILES: CC1(C)C(=O)N(c2ccc(C#N)c(C(F)(F)F)c2)C(=S)N1c1ccc(C(=O)N2CCC(F)(CN3CCC4(CCc5cc6c(cc5O4)C(=O)N(C4CCC(=O)NC4=O)C6=O)CC3)CC2)c(F)c1 (stereo not drawn) [Compound 97]
- IC50 (VCaP cells; VCaP, 168 h): 1300 nM

SMILES: CC1(C)C(=O)N(c2ccc(C#N)c(C(F)(F)F)c2)C(=S)N1c1ccc(C(=O)N2CCC(CN3CCC4(CCc5cc6c(cc5O4)C(=O)N(C4CCC(=O)NC4=O)C6=O)CC3)CC2)c(F)c1 (stereo not drawn) [Compound 99]
- IC50 (VCaP cells; VCaP, 168 h): 3800 nM

SMILES: CC1(C)C(=O)N(c2ccc(C#N)c(C(F)(F)F)c2)C(=S)N1c1ccc(C(=O)N2CCC(N3CCC4(CCc5cc6c(cc5O4)C(=O)N(C4CCC(=O)NC4=O)C6=O)CC3)CC2)c(F)c1 (stereo not drawn) [Compound 101]
- IC50 (VCaP cells; VCaP, 168 h): 3750 nM

SMILES: CC1(C)C(=O)N(c2ccc(C#N)c(C(F)(F)F)c2)C(=S)N1c1ccc(C(=O)N2CC(N3CCC4(CCc5cc6c(cc5O4)C(=O)N(C4CCC(=O)NC4=O)C6=O)CC3)C2)c(F)c1 (stereo not drawn) [Compound 102]
- IC50 (VCaP cells; VCaP, 168 h): 3880 nM

SMILES: CC1(C)C(=O)N(c2ccc(C#N)c(C(F)(F)F)c2)C(=S)N1c1ccc(C(=O)N2CCC3(CC2)CC(N2CCC4(CCc5cc6c(cc5O4)C(=O)N(C4CCC(=O)NC4=O)C6=O)CC2)C3)c(F)c1 (stereo not drawn) [Compound 103]
- IC50 (VCaP cells; [4]): 2740 nM

SMILES: CC1(C)C(=O)N(c2ccc(C#N)c(C(F)(F)F)c2)C(=S)N1c1ccc(C(=O)N2CC(N3CCC4(CCc5cc6c(cc5O4)C(=O)N(C4CCC(=O)NC4=O)C6)CC3)C2)c(F)c1 (stereo not drawn) [Compound 105]
- IC50 (VCaP cells; VCaP, 168 h): 2960 nM

SMILES: COc1cc(O[C@H]2CC[C@H](NC(=O)c3cnc(N4CCC(CN5CC6(CCc7cc8c(cc7O6)C(=O)N(C6CCC(=O)NC6=O)C8=O)C5)(OC)CC4)nc3)CC2)ccc1C#N (stereo partly drawn) [Compound 232]
- inhibition at 0.01 µM (AR protein [1]): 37%
- inhibition at 0.1 µM (AR protein [1]): 43%
- inhibition at 0.01 µM (AR protein [2]; [6]): 33%
- inhibition at 0.1 µM (AR protein [2]; [7]): 36%
- IC50 (VCaP cells; [4]): 4410 nM

SMILES: N#Cc1ccc(O[C@H]2CC[C@H](NC(=O)c3ccc(N4CCC5(CCC(C(=O)N6CCC7(CC6)COc6c7ccc7c6CN(C6CCC(=O)NC6=O)C7=O)CC5)CC4)nn3)CC2)cc1Cl (stereo partly drawn) [Compound 253]
- inhibition at 0.01 µM (AR protein [1]): 10%
- inhibition at 0.1 µM (AR protein [1]): 55%
- IC50 (LNCaP FGC cells; [3]): 550 nM
- inhibition at 0.01 µM (AR protein [2]; [6]): 37%
- inhibition at 0.1 µM (AR protein [2]; [7]): 41%

SMILES: COCC1(CN2CCC3(CC2)COc2c3ccc3c2CN(C2CCC(=O)NC2=O)C3=O)CCN(c2ccc(C(=O)N[C@H]3CC[C@H](Oc4ccc(C#N)c(Cl)c4)CC3)nn2)CC1 (stereo partly drawn) [Compound 258]
- inhibition at 0.01 µM (AR protein [1]): 60%
- inhibition at 0.1 µM (AR protein [1]): 84%
- IC50 (LNCaP FGC cells; [3]): 17 nM
- inhibition at 0.01 µM (AR protein [2]; [6]): 71%
- inhibition at 0.1 µM (AR protein [2]; [7]): 67%

SMILES: COc1cc(O[C@H]2C(C)(C)[C@H](NC(=O)c3ccc(N4CCC(C)(CN5CCC6(CCc7ccc8c(c7O6)C(=O)N(C6CCC(=O)NC6=O)C8=O)CC5)CC4)cc3)C2(C)C)ccc1C#N (stereo partly drawn) [Compound 268]
- inhibition at 0.01 µM (AR protein [1]): -26%
- inhibition at 0.1 µM (AR protein [1]): -32%
- IC50 (LNCaP FGC cells; [3]): 88600 nM
- inhibition at 0.01 µM (AR protein [2]; [6]): 15%
- inhibition at 0.1 µM (AR protein [2]; [7]): 31%

SMILES: COc1cc(O[C@H]2C(C)(C)[C@H](NC(=O)c3ccc(N4CCC(F)(CN5CC6(CCc7ccc8c(c7O6)C(=O)N(C6CCC(=O)NC6=O)C8=O)C5)CC4)cc3)C2(C)C)ccc1C#N (stereo partly drawn) [Compound 274]
- inhibition at 0.01 µM (AR protein [1]): 4%
- inhibition at 0.1 µM (AR protein [1]): -13%
- IC50 (LNCaP FGC cells; [3]): 84900 nM
- inhibition at 0.01 µM (AR protein [2]; [6]): -3%
- inhibition at 0.1 µM (AR protein [2]; [7]): -5%

SMILES: COc1cc(O[C@H]2CC[C@H](NC(=O)c3ccc(N4CCC(CN5CC6(CCc7cc8c(cc7O6)C(=O)N(C6CCC(=O)NC6=O)C8=O)C5)(OC)CC4)cc3)CC2)ccc1C#N (stereo partly drawn) [Compound 285]
- inhibition at 0.01 µM (AR protein [1]): -5%
- inhibition at 0.1 µM (AR protein [1]): 66%
- IC50 (LNCaP FGC cells; [5]): 840 nM
- inhibition at 0.01 µM (AR protein [2]; LNCaP, 8 h): 40%
- inhibition at 0.1 µM (AR protein [2]; LNCaP, 8 h): 54%
